The record followed here is patent US20250340574A1, “MODULATORS OF CYSTIC FIBROSIS TRANSMEMBRANE CONDUCTANCE REGULATOR” (Vertex Pharmaceuticals Incorporated, priority 2022, published 2025).

For series [1] the following is noted: amide bond, 13-membered ring, DMF.
Series [2] deals with T1, CFTR (F508del/MF-HBE cells) (Homo sapiens, UniProt P13569, DEL508-508).
T1 construct: human bronchial epithelial (HBE) cells derived from CF subjects heterozygous for F508del and a minimal function CFTR mutation (F508del/MF-HBE); endogenous in cells; host or cells: Primary human bronchial epithelial cells from CF subjects (F508del/MF genotype), differentiated at an air-liquid interface
T1 sequence (P13569 with tags, fused parts or gaps DEL508-508): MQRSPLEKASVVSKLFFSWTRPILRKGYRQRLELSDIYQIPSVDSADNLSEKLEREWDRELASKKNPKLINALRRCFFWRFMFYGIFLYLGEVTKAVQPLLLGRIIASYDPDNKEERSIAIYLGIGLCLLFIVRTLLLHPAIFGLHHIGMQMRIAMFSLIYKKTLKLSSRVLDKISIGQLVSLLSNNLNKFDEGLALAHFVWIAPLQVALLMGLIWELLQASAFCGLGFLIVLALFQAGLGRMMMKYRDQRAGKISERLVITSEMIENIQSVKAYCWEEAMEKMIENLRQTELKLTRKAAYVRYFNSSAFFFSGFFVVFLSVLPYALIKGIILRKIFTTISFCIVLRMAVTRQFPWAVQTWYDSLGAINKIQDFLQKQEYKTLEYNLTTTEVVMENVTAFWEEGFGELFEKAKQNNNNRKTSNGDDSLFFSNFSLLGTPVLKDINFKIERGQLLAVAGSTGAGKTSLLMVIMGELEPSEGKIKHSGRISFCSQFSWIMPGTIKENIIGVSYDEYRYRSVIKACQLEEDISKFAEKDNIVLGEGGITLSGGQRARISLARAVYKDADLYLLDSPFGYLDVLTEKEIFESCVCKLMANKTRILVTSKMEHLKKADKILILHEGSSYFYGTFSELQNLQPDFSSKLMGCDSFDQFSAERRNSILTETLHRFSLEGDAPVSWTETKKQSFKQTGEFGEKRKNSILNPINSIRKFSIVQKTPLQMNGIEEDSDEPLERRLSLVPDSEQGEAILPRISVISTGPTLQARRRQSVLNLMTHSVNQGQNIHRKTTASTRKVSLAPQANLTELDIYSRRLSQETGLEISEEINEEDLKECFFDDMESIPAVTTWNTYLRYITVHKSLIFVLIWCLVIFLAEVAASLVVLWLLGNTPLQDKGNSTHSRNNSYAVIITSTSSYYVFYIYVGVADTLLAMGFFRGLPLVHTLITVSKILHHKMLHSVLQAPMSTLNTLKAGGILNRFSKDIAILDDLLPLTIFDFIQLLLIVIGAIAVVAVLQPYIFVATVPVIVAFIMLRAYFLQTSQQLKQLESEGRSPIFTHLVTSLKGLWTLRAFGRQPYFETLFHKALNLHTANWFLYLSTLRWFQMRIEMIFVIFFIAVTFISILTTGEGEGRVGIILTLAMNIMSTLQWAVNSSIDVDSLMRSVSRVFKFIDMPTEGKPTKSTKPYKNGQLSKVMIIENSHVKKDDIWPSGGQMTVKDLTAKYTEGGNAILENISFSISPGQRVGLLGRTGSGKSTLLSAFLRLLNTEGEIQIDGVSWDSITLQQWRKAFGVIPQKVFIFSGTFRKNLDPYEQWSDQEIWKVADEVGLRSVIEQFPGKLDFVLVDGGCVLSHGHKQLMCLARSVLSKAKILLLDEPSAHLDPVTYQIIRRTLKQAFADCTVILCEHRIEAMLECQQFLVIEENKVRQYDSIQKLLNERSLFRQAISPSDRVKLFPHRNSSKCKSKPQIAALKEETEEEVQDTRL
The series is described as follows: Ussing chamber assay of CFTR-mediated short-circuit currents, Assay D (single concentration of 1 μM). It is filed as cell-based. The settings on record: with 44 nM potentiator and 18 μM Tezacaftor, 18-24 hours, 20% human serum. In outline: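 F508del/MF-HBE cells grown at air-liquid interface were incubated 18-24 h at 37 °C in 20% human serum with correctors plus 18 μM tezacaftor and a fixed partner compound (33 nM for concentration series, 44 nM at 1 μM). ISC was read at 0 mV after 20 μM forskolin, minus the post-inhibitor current.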

Where two headings read alike, the source gives them in different places.

In turn, `Cc1cccc(C)c1-c1cc2nc(n1)NS(=O)(=O)c1cccc(c1)C(=O)N(Cc1cnc3oc(C(C)C)c(Cl)c3n1)[C@H](CC1(C)CC1)CO2` [Compound I-161, (11R)-12-[(7-chloro-6-isopropyl-furo[2,3-b]pyrazin-2-yl)methyl]-6-(2,6-dimethylphenyl)-11-[(1-methylcyclopropyl)methyl]-2,2-dioxo-9-oxa-2λ^6-thia-3,5,12,19-tetrazatricyclo[12.3.1.14,8]nonadeca-1(18),4(19),5,7,14,16-hexaen-13-one] displayed a ring closure, yield after HPLC in series [1] (from Cc1cccc(C)c1-c1cc(OC[C@@H](CC2(C)CC2)NCc2cnc3oc(C(C)C)c(Cl)c3n2)nc(NS(=O)(=O)c2cccc(C(=O)O)c2)n1, CDMT/NMM, 14.9 mM, 19.0 h) of 54%. Further, the “D activity at 1 μM (%)” value in series [2] was “+++ (+++ is >60%)”.
Take `Cc1cccc(C)c1-c1cc2nc(n1)NS(=O)(=O)c1cccc(c1)C(=O)N(Cc1cnc3oc(C(C)C)nc3n1)[C@H](CC1(C)CC1)CO2` [Compound I-149, (11R)-6-(2,6-Dimethylphenyl)-12-[(2-isopropyloxazolo[4,5-b]pyrazin-5-yl)methyl]-11-[(1-methylcyclopropyl)methyl]-2,2-dioxo-9-oxa-2λ^6-thia-3,5,12,19-tetrazatricyclo[12.3.1.14,8]nonadeca-1(18),4(19),5,7,14,16-hexaen-13-one]: in series [1] (from Cc1cccc(C)c1-c1cc(OC[C@@H](CC2(C)CC2)NCc2cnc3oc(C(C)C)nc3n2)nc(NS(=O)(=O)c2cccc(C(=O)O)c2)n1, CDMT/NMM, 23.5 mM, 2.08 h), the ring closure, yield after HPLC was determined as 40%. In addition, in series [2], the “D activity at 1 μM (%)” value was “+++ (+++ is >60%)”.
For `Cc1cccc(C)c1-c1cc2nc(n1)NS(=O)(=O)c1cccc(c1)C(=O)N(Cc1cnc3nc(C(C)C)oc3n1)[C@H](CC1(C)CC1)CO2` [Compound I-159, (11R)-6-(2,6-Dimethylphenyl)-12-[(2-isopropyloxazolo[4,5-b]pyrazin-6-yl)methyl]-11-[(I-methylcyclopropyl)methyl]-2,2-dioxo-9-oxa-2λ^6-thia-3,5,12,19-tetrazatricyclo[12.3.1.14,8]nonadeca-1(18),4(19),5,7,14,16-hexaen-13-one], the ring closure, yield after HPLC in series [1] (from Cc1cccc(C)c1-c1cc(OC[C@@H](CC2(C)CC2)NCc2cnc3nc(C(C)C)oc3n2)nc(NS(=O)(=O)c2cccc(C(=O)O)c2)n1, CDMT/NMM, 26.6 mM, 2.08 h) was 26%. Also, in series [2], the “D activity at 1 μM (%)” value is on record as “+++ (+++ is >60%)”.
On to `Cc1cccc(C)c1-c1cc2nc(n1)NS(=O)(=O)c1cccc(c1)C(=O)N(Cc1ccc3oc(C4(C)CC4)cc3n1)[C@H](CC13CC(C1)C3)CO2` [Compound I-225, (11R)-11-(1-Bicyclo[1.1.1]pentanylmethyl)-6-(2,6-dimethylphenyl)-12-[[2-(1-methylcyclopropyl)furo[3,2-b]pyridin-5-yl]methyl]-2,2-dioxo-9-oxa-2λ^6-thia-3,5,12,19-tetrazatricyclo[12.3.1.14,8]nonadeca-1(18),4(19),5,7,14,16-hexaen-13-one], for which, in series [1] (from Cc1cccc(C)c1-c1cc(OC[C@@H](CC23CC(C2)C3)NCc2ccc3oc(C4(C)CC4)cc3n2)nc(NS(=O)(=O)c2cccc(C(=O)O)c2)n1, CDMT/NMM), the ring closure, yield after HPLC was found to be 61%. For the same compound, in series [2], the “D activity at 1 μM (%)” value is recorded as “+++ (+++ is >60%)”.
Regarding `Cc1cccc(C)c1-c1cc2nc(n1)NS(=O)(=O)c1cccc(c1)C(=O)N(Cc1nc3cc(C4(C)CC4)oc3cc1F)[C@H](CC1(C)CC1)CO2` [Compound I-234, (11R)-6-(2,6-Dimethylphenyl)-12-[[6-fluoro-2-(1-methylcyclopropyl)furo[3,2-b]pyridin-5-yl]methyl]-11-[(1-methylcyclopropyl)methyl]-2,2-dioxo-9-oxa-2λ^6-thia-3,5,12,19-tetrazatricyclo[12.3.1.14,8]nonadeca-1(18),4(19),5,7,14,16-hexaen-13-one], the ring closure, yield after HPLC in series [1] (from Cc1cccc(C)c1-c1cc(OC[C@@H](CC2(C)CC2)NCc2nc3cc(C4(C)CC4)oc3cc2F)nc(NS(=O)(=O)c2cccc(C(=O)O)c2)n1, CDMT/NMM, 25.0 °C) was 57%. In addition, in series [2], the “D activity at 1 μM (%)” value is recorded as “+++ (+++ is >60%)”.
Turning to `Cc1cccc(C)c1-c1cc2nc(n1)NS(=O)(=O)c1cccc(c1)C(=O)N(Cc1cc3ccn(C(C)C)c3cn1)[C@H](CC1(C)CC1)CO2` [III-25, (11R)-6-(2,6-Dimethylphenyl)-12-[(I-isopropylpyrrolo[2,3-c]pyridin-5-yl)methyl]-11-[(I-methylcyclopropyl)methyl]-2,2-dioxo-9-oxa-2λ^6-thia-3,5,12,19-tetrazatricyclo[12.3.1.14,8]nonadeca-1(18),4(19),5,7,14,16-hexaen-13-one], the ring closure, yield after HPLC in series [1] (from Cc1cccc(C)c1-c1cc(OC[C@@H](CC2(C)CC2)NCc2cc3ccn(C(C)C)c3cn2)nc(NS(=O)(=O)c2cccc(C(=O)O)c2)n1, CDMT/NMM, 9.73 mM, 16.33 h) turned out to be 50%. For the same compound, the “D activity at 1 μM (%)” value in series [2] is on record as “+++ (+++ is >60%)”.
Compound `Cc1cccc(C)c1-c1cc2nc(n1)NS(=O)(=O)c1cccc(c1)C(=O)N(Cc1cnc3oc(C(C)C)c(NC(=O)OC(C)(C)C)c3n1)[C@H](CC1(C)CC1)CO2` [Compound I-210, tert-Butyl N-[2-[[(11R)-6-(2,6-dimethylphenyl)-11-[(1-methylcyclopropyl)methyl]-2,2,13-trioxo-9-oxa-2λ^6-thia-3,5,12,19-tetrazatricyclo[12.3.1.14,8]nonadeca-1(18),4(19),5,7,14,16-hexaen-12-yl]methyl]-6-isopropyl-furo[2,3-b]pyrazin-7-yl]carbamate] came in with a ring closure, yield after HPLC in series [1] (from Cc1cccc(C)c1-c1cc(OC[C@@H](CC2(C)CC2)NCc2cnc3oc(C(C)C)c(NC(=O)OC(C)(C)C)c3n2)nc(NS(=O)(=O)c2cccc(C(=O)O)c2)n1, CDMT/NMM, 13.4 mM, 5.5 h) of 55%. Further, the “D activity at 1 μM (%)” value in series [2] is reported as “+++ (+++ is >60%)”.
On to `Cc1cccc(C)c1-c1cc2nc(n1)NS(=O)(=O)c1cccc(c1)C(=O)N(Cc1cnc3oc(C(C)(C)C)cc3n1)[C@H](C[C@H]1CCCCO1)CO2` [Compound I-220, (11R)-12-[(6-tert-Butylfuro[2,3-b]pyrazin-2-yl)methyl]-6-(2,6-dimethylphenyl)-2,2-dioxo-11-[[(2R)-tetrahydropyran-2-yl]methyl]-9-oxa-2λ^6-thia-3,5,12,19-tetrazatricyclo[12.3.1.14,8]nonadeca-1(18),4(19),5,7,14,16-hexaen-13-one], for which the ring closure, yield after HPLC in series [1] (from Cc1cccc(C)c1-c1cc(OC[C@@H](C[C@H]2CCCCO2)NCc2cnc3oc(C(C)(C)C)cc3n2)nc(NS(=O)(=O)c2cccc(C(=O)O)c2)n1, CDMT/DIEA, 11.6 mM, 48.0 h) amounted to 70%. Also, the “D activity at 1 μM (%)” value in series [2] is reported as “+++ (+++ is >60%)”.
Compound `Cc1cccc(C)c1-c1cc2nc(n1)NS(=O)(=O)c1cccc(c1)C(=O)N(Cc1cnc3nc(C4CC4)n(C)c3n1)[C@H](CC13CC(C1)C3)CO2` [Compound I-175, (11R)-11-(1-Bicyclo[1.1.1]pentanylmethyl)-12-[(2-cyclopropyl-3-methyl-imidazo[4,5-b]pyrazin-5-yl)methyl]-6-(2,6-dimethylphenyl)-2,2-dioxo-9-oxa-2λ^6-thia-3,5,12,19-tetrazatricyclo[12.3.1.14,8]nonadeca-1(18),4(19),5,7,14,16-hexaen-13-one] gave a ring closure, yield after HPLC in series [1] (from Cc1cccc(C)c1-c1cc(OC[C@@H](CC23CC(C2)C3)NCc2cnc3nc(C4CC4)n(C)c3n2)nc(NS(=O)(=O)c2cccc(C(=O)O)c2)n1, CDMT/NMM, 11.1 mM, 16.5 h) of 28%. Also, the “D activity at 1 μM (%)” value in series [2] was “+++ (+++ is >60%)”.
In turn, `Cc1cccc(C)c1-c1cc2nc(n1)NS(=O)(=O)c1cccc(c1)C(=O)N(Cc1cnc3c(n1)CN(C(C)C)C3=O)[C@H](CC13CC(C1)C3)CO2` [III-16, (11R)-11-(1-bicyclo[1.1.1]pentanylmethyl)-6-(2,6-dimethylphenyl)-12-[(6-isopropyl-7-oxo-5H-pyrrolo[3,4-b]pyrazin-3-yl)methyl]-2,2-dioxo-9-oxa-2λ^6-thia-3,5,12,19-tetrazatricyclo[12.3.1.14,8]nonadeca-1(18),4(19),5,7,14,16-hexaen-13-one] showed a ring closure, yield after HPLC in series [1] (from Cc1cccc(C)c1-c1cc(OC[C@@H](CC23CC(C2)C3)NCc2cnc3c(n2)CN(C(C)C)C3=O)nc(NS(=O)(=O)c2cccc(C(=O)O)c2)n1, CDMT/NMM, 13.0 mM, 16.5 h) of 39%. Moreover, the “D activity at 1 μM (%)” value in series [2] is reported as “+++ (+++ is >60%)”.
For the compound `Cc1cccc(C)c1-c1cc2nc(n1)NS(=O)(=O)c1cccc(c1)C(=O)N(Cc1cnc3oc(C(C)C)c(C(F)(F)F)c3n1)[C@H](CC1(C)CC1)CO2` [Compound I-126, (11R)-6-(2,6-dimethylphenyl)-12-[[6-isopropyl-7-(trifluoromethyl)furo[2,3-b]pyrazin-2-yl]methyl]-11-[(1-methylcyclopropyl)methyl]-2,2-dioxo-9-oxa-2λ^6-thia-3,5,12,19-tetrazatricyclo[12.3.1.14,8]nonadeca-1(18),4(19),5,7,14,16-hexaen-13-one], in series [1] (from Cc1cccc(C)c1-c1cc(OC[C@@H](CC2(C)CC2)NCc2cnc3oc(C(C)C)c(C(F)(F)F)c3n2)nc(NS(=O)(=O)c2cccc(C(=O)O)c2)n1, CDMT/NMM, 12.1 mM, 16.5 h), the ring closure, yield after HPLC is 36%. Besides, the “D activity at 1 μM (%)” value in series [2] is on record as “+++ (+++ is >60%)”.
